In patent US10040838B2, “CRHR2 peptide agonists and uses thereof” (JANSSEN PHARMACEUTICA NV, priority 2008, dated 2018):
Residues, ends and D or L forms follow the SMILES beside them. *: point of attachment. Succinimide(1-Et,3-yl) = CCN1C(=O)CC(*)C1=O

Molecular target: T1, human CRHR2 (Homo sapiens, UniProt Q13324)
T1 construct: expressed in transfected cells
T1 sequence (Q13324 1-411): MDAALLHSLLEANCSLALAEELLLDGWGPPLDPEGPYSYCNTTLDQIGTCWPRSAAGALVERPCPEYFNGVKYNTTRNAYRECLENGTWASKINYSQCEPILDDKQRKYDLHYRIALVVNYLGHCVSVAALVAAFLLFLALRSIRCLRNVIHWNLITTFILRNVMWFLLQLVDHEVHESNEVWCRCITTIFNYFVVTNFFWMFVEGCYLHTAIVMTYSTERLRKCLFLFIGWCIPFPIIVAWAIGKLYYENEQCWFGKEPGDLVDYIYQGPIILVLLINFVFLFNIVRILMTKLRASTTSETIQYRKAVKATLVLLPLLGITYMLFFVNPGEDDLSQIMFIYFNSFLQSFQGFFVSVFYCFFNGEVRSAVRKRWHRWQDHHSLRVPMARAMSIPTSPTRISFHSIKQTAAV
Test: cAMP assay in h-CRHR2 transfected SK-N-MC cells
Format: cell-based
Settings: Table 13; h-SCP control pA50 minus test compound pA50 within same assay batch
Experimental: The concentration required for 50% maximum effect (A50) was 0.4 nM.
Human CRHR1 (accession number X72304) or CRHR2 (accession number U34587) were cloned into pcDNA3.1/Zeo expression vector and stably transfected into SK-N-MC cells by electroporation. Cells were maintained in MEM w/Earl's Salt with 10% FBS, 50 I.U. penicillin, 50 μg/ml streptomycin, 2 mM L-glutamine, 1 mM sodium pyruvate and 0.1 mM nonessential amino acids, 600 μg/ml G418. Cells were grown at 37° C. in 5% CO2.
Cells were plated in 96-well tissue culture dishes (Biocoat from BD Biosciences) overnight at 50,000 cell/well. Cells were washed with PBS then resuspended in DMEM F-12 without phenol red, containing 10 μM isobutylmethylxanthine (IBMX). Cells were incubated with the peptides at concentrations ranging from 1 pM to 10 μM for 60 min at 37° Celsius. […] Forskolin (10 μM), a direct stimulant of adenylate cyclase, was used as positive control. The assays were stopped by the addition of 0.5 M HCl and mixing by orbital rotation for 2 h at 4° Celsius.
To assess the activity of the inventive peptide at the CRHR2, an intracellular cAMP measurement test using a Flash plate radioactive assay (Catalog No. Cus56088; Perkin Elmer, MA, U.S.A.) was employed.
Transfected SK-N-MC cells were plated in 96-well Biocoat tissue culture dishes (BD Biosciences, San Jose, Calif., U.S.A) overnight at 50,000 cell/well. Cells were first washed with PBS and then suspended with DMEM/F-12 without phenol red, containing […]. Suspended cells were transferred into a 96-well flash plate coated with scintillant fluid. Cells were incubated with peptides ranging from […], for 60 min, at 37° Celsius. Forskolin at 10 μM was used as positive control. After ligand stimulation, cells were lysed by the addition of 0.5M HCl and mixed by orbital rotation for 2 h at 4° Celsius in order to release intracellular cAMP into the media.
Media containing released intracellular cAMP was transferred to a 96-well flash plate coated with scintillant fluid containing an anti-cAMP antibody. In this assay, intracellular cAMP competes with ^125I-labeled cAMP binding to the antibody. To generate a standard curve, cAMP ranging from 2.5 to 250 pmoles/ml was included in the experiment. [^125I]-cAMP was measured on a TopCount scintillation counter (Perkin Elmer, MA, U.S.A).
Individual agonist concentration-response curve data were fitted to the Hill equation, see formula below, using GraphPad Prism (Graphpad Software, La Jolla, Calif., U.S.A.), to provide estimates of agonist concentration needed to generate one-half maximal response (A50), and the maximal asymptote (α) and Hill slope (nH) parameters. In this equation, [A] is the agonist concentration and E is the measured effect:
For display purposes the mean fitted parameter estimates were used to generate a single E/[A] curve shown superimposed on the mean experimental data. Potency estimates for agonists, pA50, are expressed as the negative logarithm of the midpoint of each curve and listed with their standard error of measurement (SEM). Logarithm base 10 of the agonist dose ratio (Log DR) values were calculated by subtraction of the test compound pA50 value from the corresponding h-SCP (SEQ ID NO:1) control pA50 value within the same assay batch. The SEM values of the Log DR values are given by the square root of the sum of the squared SEM values of the h-SCP (SEQ ID NO:1) control and test compound pA50 values.
Human and rat peptides (see Table 10) were used on the stimulation of h-CRHR1 or h-CRHR2 transfected SK-N-MC cells in the cAMP flash plate assay. Peptides were incubated for 1 hr at 37° Celsius. Curves were calculated using non-linear regression sigmoidal concentration-response analysis calculation in GraphPad Prism. The so obtained pA50 values are shown in Table 11 in addition to literature values. […]

Row | Log DR | Structure (SMILES)
1 | 0.04 | CC[C@H](C)[C@H](NC(=O)[C@H](CCC(N)=O)NC(=O)[C@H](C)NC(=O)[C@H](CCSC)NC(=O)[C@H](CC(C)C)NC(=O)[C@H](Cc1c[nH]cn1)NC(=O)[C@H](C)NC(=O)[C@H](CC(N)=O)NC(=O)[C@H](C)NC(=O)[C@H](CSC1CC(=O)N(CC)C1=O)NC(=O)[C@H](C)NC(=O)[C@H](CCC(N)=O)NC(=O)[C@H](C)NC(=O)[C@H](CCCNC(=N)N)NC(=O)[C@H](CC(C)C)NC(=O)[C@H](CC(N)=O)NC(=O)[C@H](CCCCN)NC(=O)[C@H](C)NC(=O)[C@H](CCCCN)NC(=O)[C@H](C)NC(=O)[C@@H](NC(=O)[C@H](CC(N)=O)NC(=O)[C@H](Cc1ccccc1)NC(=O)[C@H](CC(C)C)NC(=O)[C@H](CC(C)C)NC(=O)[C@H](CC(N)=O)NC(=O)[C@H](CCSC)NC(=O)[C@@H](NC(=O)[C@H](CC(N)=O)NC(=O)[C@@H](NC(=O)[C@@H]1CCCN1C(=O)[C@@H](NC(=O)[C@H](CC(=O)O)NC(=O)[C@H](CC(C)C)NC(=O)[C@H](CO)NC(=O)[C@H](CC(C)C)NC(=O)[C@@H](NC(=O)[C@H](Cc1ccccc1)NC(=O)[C@H](CCCCN)NC(=O)[C@@H](N)[C@@H](C)O)[C@@H](C)O)C(C)C)[C@@H](C)O)[C@@H](C)CC)[C@@H](C)CC)C(N)=O (stereo partly shown) [SEQ ID NO: 46, TKFTLSLDVPTNIMNLLFNIAKAKNLRAQAC(-NES)ANAH LMAQI-NH2] (H-TKFTLSLDVPTNIMNLLFNIAKAKNLRAQAC(Succinimide(1-Et,3-yl))ANAHLMAQI-NH2; N-terminus assumed)
2 | −0.03 | CC[C@H](C)[C@H](NC(=O)[C@H](CCC(N)=O)NC(=O)[C@H](C)NC(=O)[C@H](CCSC)NC(=O)[C@H](CC(C)C)NC(=O)[C@H](Cc1c[nH]cn1)NC(=O)[C@H](C)NC(=O)[C@H](CC(N)=O)NC(=O)[C@H](C)NC(=O)[C@H](C)NC(=O)[C@H](C)NC(=O)[C@H](CCC(N)=O)NC(=O)[C@H](CSC1CC(=O)N(CC)C1=O)NC(=O)[C@H](CCCNC(=N)N)NC(=O)[C@H](CC(C)C)NC(=O)[C@H](CC(N)=O)NC(=O)[C@H](CCCCN)NC(=O)[C@H](C)NC(=O)[C@H](CCCCN)NC(=O)[C@H](C)NC(=O)[C@@H](NC(=O)[C@H](CC(N)=O)NC(=O)[C@H](Cc1ccccc1)NC(=O)[C@H](CC(C)C)NC(=O)[C@H](CC(C)C)NC(=O)[C@H](CC(N)=O)NC(=O)[C@H](CCSC)NC(=O)[C@@H](NC(=O)[C@H](CC(N)=O)NC(=O)[C@@H](NC(=O)[C@@H]1CCCN1C(=O)[C@@H](NC(=O)[C@H](CC(=O)O)NC(=O)[C@H](CC(C)C)NC(=O)[C@H](CO)NC(=O)[C@H](CC(C)C)NC(=O)[C@@H](NC(=O)[C@H](Cc1ccccc1)NC(=O)[C@H](CCCCN)NC(=O)[C@@H](N)[C@@H](C)O)[C@@H](C)O)C(C)C)[C@@H](C)O)[C@@H](C)CC)[C@@H](C)CC)C(N)=O (stereo partly shown) [SEQ ID NO: 47, TKFTLSLDVPTNIMNLLFNIAKAKNLRC(-NES)QA AANAH LMAQI-NH2] (H-TKFTLSLDVPTNIMNLLFNIAKAKNLRC(Succinimide(1-Et,3-yl))QAAANAHLMAQI-NH2; N-terminus assumed)
3 | 0.03 | CC[C@H](C)[C@H](NC(=O)[C@H](CCC(N)=O)NC(=O)[C@H](C)NC(=O)[C@H](CCSC)NC(=O)[C@H](CC(C)C)NC(=O)[C@H](Cc1c[nH]cn1)NC(=O)[C@H](C)NC(=O)[C@H](CC(N)=O)NC(=O)[C@H](C)NC(=O)[C@H](C)NC(=O)[C@H](C)NC(=O)[C@H](CCC(N)=O)NC(=O)[C@H](C)NC(=O)[C@H](CCCNC(=N)N)NC(=O)[C@H](CSC1CC(=O)N(CC)C1=O)NC(=O)[C@H](CC(N)=O)NC(=O)[C@H](CCCCN)NC(=O)[C@H](C)NC(=O)[C@H](CCCCN)NC(=O)[C@H](C)NC(=O)[C@@H](NC(=O)[C@H](CC(N)=O)NC(=O)[C@H](Cc1ccccc1)NC(=O)[C@H](CC(C)C)NC(=O)[C@H](CC(C)C)NC(=O)[C@H](CC(N)=O)NC(=O)[C@H](CCSC)NC(=O)[C@@H](NC(=O)[C@H](CC(N)=O)NC(=O)[C@@H](NC(=O)[C@@H]1CCCN1C(=O)[C@@H](NC(=O)[C@H](CC(=O)O)NC(=O)[C@H](CC(C)C)NC(=O)[C@H](CO)NC(=O)[C@H](CC(C)C)NC(=O)[C@@H](NC(=O)[C@H](Cc1ccccc1)NC(=O)[C@H](CCCCN)NC(=O)[C@@H](N)[C@@H](C)O)[C@@H](C)O)C(C)C)[C@@H](C)O)[C@@H](C)CC)[C@@H](C)CC)C(N)=O (stereo partly shown) [SEQ ID NO: 48, TKFTLSLDVPTNIMNLLFNIAKAKNC(-NES)RAQA AANAH LMAQI-NH2] (H-TKFTLSLDVPTNIMNLLFNIAKAKNC(Succinimide(1-Et,3-yl))RAQAAANAHLMAQI-NH2; N-terminus assumed)
4 | 0.11 | CC[C@H](C)[C@H](NC(=O)[C@H](CCC(N)=O)NC(=O)[C@H](C)NC(=O)[C@H](CCSC)NC(=O)[C@H](CC(C)C)NC(=O)[C@H](Cc1c[nH]cn1)NC(=O)[C@H](C)NC(=O)[C@H](CC(N)=O)NC(=O)[C@H](C)NC(=O)[C@H](C)NC(=O)[C@H](C)NC(=O)[C@H](CCC(N)=O)NC(=O)[C@H](C)NC(=O)[C@H](CCCNC(=N)N)NC(=O)[C@H](CC(C)C)NC(=O)[C@H](CSC1CC(=O)N(CC)C1=O)NC(=O)[C@H](CCCCN)NC(=O)[C@H](C)NC(=O)[C@H](CCCCN)NC(=O)[C@H](C)NC(=O)[C@@H](NC(=O)[C@H](CC(N)=O)NC(=O)[C@H](Cc1ccccc1)NC(=O)[C@H](CC(C)C)NC(=O)[C@H](CC(C)C)NC(=O)[C@H](CC(N)=O)NC(=O)[C@H](CCSC)NC(=O)[C@@H](NC(=O)[C@H](CC(N)=O)NC(=O)[C@@H](NC(=O)[C@@H]1CCCN1C(=O)[C@@H](NC(=O)[C@H](CC(=O)O)NC(=O)[C@H](CC(C)C)NC(=O)[C@H](CO)NC(=O)[C@H](CC(C)C)NC(=O)[C@@H](NC(=O)[C@H](Cc1ccccc1)NC(=O)[C@H](CCCCN)NC(=O)[C@@H](N)[C@@H](C)O)[C@@H](C)O)C(C)C)[C@@H](C)O)[C@@H](C)CC)[C@@H](C)CC)C(N)=O (stereo partly shown) [SEQ ID NO: 49, TKFTLSLDVPTNIMNLLFNIAKAKC(-NES) LRAQA AANAH LMAQI-NH2] (H-TKFTLSLDVPTNIMNLLFNIAKAKC(Succinimide(1-Et,3-yl))LRAQAAANAHLMAQI-NH2; N-terminus assumed)
